Source: ChEMBL document CHEMBL4507263, “Data for DCP probe BAY-474” (2021)

Tests used:
[1] = target: Serine/threonine-protein kinase WNK2 (Homo sapiens) (UniProt Q9Y3S1); assay: WNK2 (h) Millipore kinase activity assay; settings: Compound concentration 1.0 uM
[2] = target: Ephrin type-A receptor 1 (Homo sapiens) (UniProt P21709); assay: EphA1 (h) Millipore kinase activity assay; settings: Compound concentration 1.0 uM
[3] = target: Serine/threonine-protein kinase MRCK beta (Homo sapiens) (UniProt Q9Y5S2); assay: MRCKbeta (h) Millipore kinase activity assay; settings: Compound concentration 1.0 uM
[4] = target: Serine/threonine-protein kinase 33 (Homo sapiens) (UniProt Q9BYT3); assay: STK33 (h) Millipore kinase activity assay; settings: Compound concentration 1.0 uM
[5] = target: B2 bradykinin receptor (Homo sapiens) (UniProt P30411); settings: Compound concentration 10.0 uM
[6] = target: Homeodomain-interacting protein kinase 1 (Homo sapiens) (UniProt Q86Z02); assay: HIPK1 (h) Millipore kinase activity assay; settings: Compound concentration 1.0 uM
[7] = target: Serine/threonine-protein kinase NLK (Homo sapiens) (UniProt Q9UBE8); assay: NLK (h) Millipore kinase activity assay; settings: Compound concentration 1.0 uM
[8] = target: Casein kinase I isoform gamma-1 (Homo sapiens) (UniProt Q9HCP0); assay: CK1gamma1 (h) Millipore kinase activity assay; settings: Compound concentration 1.0 uM
[9] = target: Serine/threonine-protein kinase Nek3 (Homo sapiens) (UniProt P51956); assay: NEK3 (h) Millipore kinase activity assay; settings: Compound concentration 1.0 uM
[10] = target: Mitogen-activated protein kinase 11 (Homo sapiens) (UniProt Q15759); assay: SAPK2b (h) Millipore kinase activity assay; settings: Compound concentration 1.0 uM
Sequence of Mitogen-activated protein kinase 11 (Homo sapiens) (Q15759 whole entry): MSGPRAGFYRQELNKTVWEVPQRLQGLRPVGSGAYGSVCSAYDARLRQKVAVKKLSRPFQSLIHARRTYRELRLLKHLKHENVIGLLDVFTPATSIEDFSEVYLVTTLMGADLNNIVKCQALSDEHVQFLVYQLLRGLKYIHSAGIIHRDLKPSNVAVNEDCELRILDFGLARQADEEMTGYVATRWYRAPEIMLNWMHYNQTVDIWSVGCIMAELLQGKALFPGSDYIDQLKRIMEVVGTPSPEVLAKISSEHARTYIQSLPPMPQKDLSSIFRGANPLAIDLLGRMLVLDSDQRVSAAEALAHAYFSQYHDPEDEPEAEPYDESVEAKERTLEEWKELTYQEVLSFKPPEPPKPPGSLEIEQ

[11] = target: Serine/threonine-protein kinase 24 (Homo sapiens) (UniProt Q9Y6E0); assay: MST3 (h) Millipore kinase activity assay; settings: Compound concentration 1.0 uM
[12] = target: Ephrin type-B receptor 4 (Homo sapiens) (UniProt P54760); assay: EphB4 (h) Millipore kinase activity assay; settings: Compound concentration 1.0 uM
[13] = target: Protein kinase C alpha type (Homo sapiens) (UniProt P17252); assay: PKCalpha (h) Millipore kinase activity assay; settings: Compound concentration 1.0 uM
[14] = target: D(3) dopamine receptor (Homo sapiens) (UniProt P35462); settings: Compound concentration 10.0 uM
[15] = target: Dual specificity mitogen-activated protein kinase kinase 7 (Homo sapiens) (UniProt O14733); assay: MKK7beta (h) Millipore kinase activity assay; settings: Compound concentration 1.0 uM
Sequence of Dual specificity mitogen-activated protein kinase kinase 7 (Homo sapiens) (O14733 whole entry): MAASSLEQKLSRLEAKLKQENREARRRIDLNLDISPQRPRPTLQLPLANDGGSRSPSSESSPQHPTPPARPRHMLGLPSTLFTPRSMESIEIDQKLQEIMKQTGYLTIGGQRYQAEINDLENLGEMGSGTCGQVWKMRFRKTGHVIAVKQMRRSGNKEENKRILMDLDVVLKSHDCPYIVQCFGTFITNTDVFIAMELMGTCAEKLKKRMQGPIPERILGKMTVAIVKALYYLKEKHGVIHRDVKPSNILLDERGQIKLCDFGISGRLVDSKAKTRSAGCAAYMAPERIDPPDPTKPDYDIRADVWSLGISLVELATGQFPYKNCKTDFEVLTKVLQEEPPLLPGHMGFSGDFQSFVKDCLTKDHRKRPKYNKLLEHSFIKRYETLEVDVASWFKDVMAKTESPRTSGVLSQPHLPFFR

[16] = target: Cannabinoid receptor 1 (Homo sapiens) (UniProt P21554); settings: Compound concentration 10.0 uM
[17] = target: MAP/microtubule affinity-regulating kinase 4 (Homo sapiens) (UniProt Q96L34); settings: Compound concentration 1000.0 nM
Sequence of MAP/microtubule affinity-regulating kinase 4 (Homo sapiens) (Q96L34 whole entry): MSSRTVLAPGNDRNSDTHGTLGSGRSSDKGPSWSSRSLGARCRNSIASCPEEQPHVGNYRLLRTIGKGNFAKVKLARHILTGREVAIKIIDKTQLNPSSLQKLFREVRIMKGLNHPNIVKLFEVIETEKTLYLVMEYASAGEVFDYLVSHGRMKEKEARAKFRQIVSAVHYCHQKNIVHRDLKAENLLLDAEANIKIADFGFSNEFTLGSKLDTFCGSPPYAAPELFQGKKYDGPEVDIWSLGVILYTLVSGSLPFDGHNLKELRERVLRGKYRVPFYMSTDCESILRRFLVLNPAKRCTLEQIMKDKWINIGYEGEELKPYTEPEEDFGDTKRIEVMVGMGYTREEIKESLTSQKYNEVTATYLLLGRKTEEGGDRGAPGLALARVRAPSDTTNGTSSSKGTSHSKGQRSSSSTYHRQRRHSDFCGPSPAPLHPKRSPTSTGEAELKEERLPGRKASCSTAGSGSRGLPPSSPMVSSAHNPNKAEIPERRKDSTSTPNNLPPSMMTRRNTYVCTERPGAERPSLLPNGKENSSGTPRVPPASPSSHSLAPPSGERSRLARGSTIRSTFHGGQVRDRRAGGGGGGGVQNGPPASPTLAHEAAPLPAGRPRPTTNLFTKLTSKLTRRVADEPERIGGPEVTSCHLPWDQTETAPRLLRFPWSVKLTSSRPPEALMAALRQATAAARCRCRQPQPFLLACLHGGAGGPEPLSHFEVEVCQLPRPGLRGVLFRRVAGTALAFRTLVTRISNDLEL

[18] = test system: Epidermal growth factor receptor (Homo sapiens), P00533 [T790M]; settings: Compound concentration 1000.0 nM
[19] = target: 5'-AMP-activated protein kinase catalytic subunit alpha-2 (Homo sapiens) (UniProt P54646); settings: Compound concentration 1000.0 nM
Sequence of 5'-AMP-activated protein kinase catalytic subunit alpha-2 (Homo sapiens) (P54646 whole entry, looked up): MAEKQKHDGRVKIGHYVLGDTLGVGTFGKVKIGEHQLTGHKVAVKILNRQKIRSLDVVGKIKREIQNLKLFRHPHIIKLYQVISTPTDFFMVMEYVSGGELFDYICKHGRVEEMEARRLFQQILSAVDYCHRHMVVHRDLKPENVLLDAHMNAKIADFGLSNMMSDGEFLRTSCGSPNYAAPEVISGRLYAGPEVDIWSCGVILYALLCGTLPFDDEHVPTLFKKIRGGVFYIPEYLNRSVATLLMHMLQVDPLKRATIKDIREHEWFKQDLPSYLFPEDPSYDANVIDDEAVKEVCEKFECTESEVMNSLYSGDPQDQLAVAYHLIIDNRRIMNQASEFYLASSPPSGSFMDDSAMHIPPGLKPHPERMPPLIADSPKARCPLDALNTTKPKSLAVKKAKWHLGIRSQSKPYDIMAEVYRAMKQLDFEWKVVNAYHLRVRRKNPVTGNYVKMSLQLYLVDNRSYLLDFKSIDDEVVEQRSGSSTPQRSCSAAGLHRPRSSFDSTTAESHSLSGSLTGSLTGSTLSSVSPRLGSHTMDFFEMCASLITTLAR

[20] = target: Calcium/calmodulin-dependent protein kinase type II subunit alpha (Homo sapiens) (UniProt Q9UQM7); settings: Compound concentration 1000.0 nM
[21] = test system: Epidermal growth factor receptor (Homo sapiens), P00533 [G719C]; settings: Compound concentration 1000.0 nM
[22] = test system: Tyrosine-protein kinase ABL1 (Homo sapiens), P00519 [T315I]; settings: Compound concentration 1000.0 nM
[23] = target: Cyclin-dependent kinase 9 (Homo sapiens) (UniProt P50750); settings: Compound concentration 1000.0 nM
Sequence of Cyclin-dependent kinase 9 (Homo sapiens) (P50750 whole entry): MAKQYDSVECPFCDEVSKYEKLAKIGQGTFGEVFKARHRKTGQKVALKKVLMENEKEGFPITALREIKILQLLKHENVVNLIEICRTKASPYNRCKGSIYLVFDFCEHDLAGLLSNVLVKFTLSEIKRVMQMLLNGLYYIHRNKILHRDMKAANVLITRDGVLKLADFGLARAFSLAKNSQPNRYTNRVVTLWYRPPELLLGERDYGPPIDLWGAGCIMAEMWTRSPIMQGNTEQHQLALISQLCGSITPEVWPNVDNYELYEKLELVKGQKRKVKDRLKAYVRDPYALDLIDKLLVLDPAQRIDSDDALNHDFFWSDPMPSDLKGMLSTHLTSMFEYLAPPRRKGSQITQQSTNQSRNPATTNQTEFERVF

[24] = target: Serine/threonine-protein kinase Nek1 (Homo sapiens) (UniProt Q96PY6); settings: Compound concentration 1000.0 nM
[25] = target: Death-associated protein kinase 3 (Homo sapiens) (UniProt O43293); settings: Compound concentration 1000.0 nM
[26] = target: Calcium/calmodulin-dependent protein kinase type II subunit gamma (Homo sapiens) (UniProt Q13555); settings: Compound concentration 1000.0 nM
[27] = target: Mitogen-activated protein kinase 10 (Homo sapiens) (UniProt P53779); settings: Compound concentration 1000.0 nM
[28] = target: Mitogen-activated protein kinase kinase kinase 6 (Homo sapiens) (UniProt O95382); settings: Compound concentration 1000.0 nM
[29] = target: Casein kinase I isoform epsilon (Homo sapiens) (UniProt P49674); settings: Compound concentration 1000.0 nM
[30] = test system: Receptor-type tyrosine-protein kinase FLT3 (Homo sapiens), P36888 [UNDEFINED MUTATION]; settings: Compound concentration 1000.0 nM
[31] = target: Receptor-type tyrosine-protein kinase FLT3 (Homo sapiens) (UniProt P36888); settings: Compound concentration 1000.0 nM
[32] = target: Cyclin-dependent kinase 4 (Homo sapiens) (UniProt P11802); settings: Compound concentration 1000.0 nM
Sequence of Cyclin-dependent kinase 4 (Homo sapiens) (P11802 whole entry): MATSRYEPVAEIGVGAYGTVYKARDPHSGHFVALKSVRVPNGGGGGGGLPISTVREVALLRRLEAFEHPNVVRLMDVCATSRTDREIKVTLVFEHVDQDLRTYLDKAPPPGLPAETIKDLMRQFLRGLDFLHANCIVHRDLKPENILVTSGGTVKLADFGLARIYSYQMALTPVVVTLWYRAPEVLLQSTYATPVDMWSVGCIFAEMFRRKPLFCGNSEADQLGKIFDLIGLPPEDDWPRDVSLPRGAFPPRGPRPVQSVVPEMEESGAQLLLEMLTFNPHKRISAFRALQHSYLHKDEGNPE

[33] = target: GABA-A receptor; anion channel (Rattus norvegicus) (UniProt O09028+P15431+P18506+P18508+P19969+P20236+P23574+P23576+P28471+P28473+P30191+P62813+P63079+P63138+Q91ZM7+Q9ES14); settings: Compound concentration 10.0 uM
[34] = test system: Epidermal growth factor receptor (Homo sapiens), P00533 [G719S]; settings: Compound concentration 1000.0 nM
[35] = test system: Epidermal growth factor receptor (Homo sapiens), P00533 [UNDEFINED MUTATION]; settings: Compound concentration 1000.0 nM
[36] = target: Dual specificity mitogen-activated protein kinase kinase 7 (Homo sapiens) (UniProt O14733); settings: Compound concentration 1000.0 nM
[37] = target: Hormonally up-regulated neu tumor-associated kinase (Homo sapiens) (UniProt P57058); settings: Compound concentration 1000.0 nM
[38] = target: Receptor tyrosine-protein kinase erbB-4 (Homo sapiens) (UniProt Q15303); settings: Compound concentration 1000.0 nM
[39] = target: Serine/threonine-protein kinase WNK2 (Homo sapiens) (UniProt Q9Y3S1); settings: Compound concentration 1000.0 nM
[40] = target: Cyclin-dependent kinase 7 (Homo sapiens) (UniProt P50613); settings: Compound concentration 1000.0 nM
[41] = test system: Phosphatidylinositol 4,5-bisphosphate 3-kinase catalytic subunit alpha isoform (Homo sapiens), P42336 [E545A]; settings: Compound concentration 1000.0 nM
[42] = target: Proto-oncogene tyrosine-protein kinase receptor Ret (Homo sapiens) (UniProt P07949); settings: Compound concentration 1000.0 nM
[43] = target: Myotonin-protein kinase (Homo sapiens) (UniProt Q09013); settings: Compound concentration 1000.0 nM
[44] = target: STE20/SPS1-related proline-alanine-rich protein kinase (Homo sapiens) (UniProt Q9UEW8); settings: Compound concentration 1000.0 nM

Sequence of Serine/threonine-protein kinase WNK2 (Homo sapiens) (Q9Y3S1 whole entry): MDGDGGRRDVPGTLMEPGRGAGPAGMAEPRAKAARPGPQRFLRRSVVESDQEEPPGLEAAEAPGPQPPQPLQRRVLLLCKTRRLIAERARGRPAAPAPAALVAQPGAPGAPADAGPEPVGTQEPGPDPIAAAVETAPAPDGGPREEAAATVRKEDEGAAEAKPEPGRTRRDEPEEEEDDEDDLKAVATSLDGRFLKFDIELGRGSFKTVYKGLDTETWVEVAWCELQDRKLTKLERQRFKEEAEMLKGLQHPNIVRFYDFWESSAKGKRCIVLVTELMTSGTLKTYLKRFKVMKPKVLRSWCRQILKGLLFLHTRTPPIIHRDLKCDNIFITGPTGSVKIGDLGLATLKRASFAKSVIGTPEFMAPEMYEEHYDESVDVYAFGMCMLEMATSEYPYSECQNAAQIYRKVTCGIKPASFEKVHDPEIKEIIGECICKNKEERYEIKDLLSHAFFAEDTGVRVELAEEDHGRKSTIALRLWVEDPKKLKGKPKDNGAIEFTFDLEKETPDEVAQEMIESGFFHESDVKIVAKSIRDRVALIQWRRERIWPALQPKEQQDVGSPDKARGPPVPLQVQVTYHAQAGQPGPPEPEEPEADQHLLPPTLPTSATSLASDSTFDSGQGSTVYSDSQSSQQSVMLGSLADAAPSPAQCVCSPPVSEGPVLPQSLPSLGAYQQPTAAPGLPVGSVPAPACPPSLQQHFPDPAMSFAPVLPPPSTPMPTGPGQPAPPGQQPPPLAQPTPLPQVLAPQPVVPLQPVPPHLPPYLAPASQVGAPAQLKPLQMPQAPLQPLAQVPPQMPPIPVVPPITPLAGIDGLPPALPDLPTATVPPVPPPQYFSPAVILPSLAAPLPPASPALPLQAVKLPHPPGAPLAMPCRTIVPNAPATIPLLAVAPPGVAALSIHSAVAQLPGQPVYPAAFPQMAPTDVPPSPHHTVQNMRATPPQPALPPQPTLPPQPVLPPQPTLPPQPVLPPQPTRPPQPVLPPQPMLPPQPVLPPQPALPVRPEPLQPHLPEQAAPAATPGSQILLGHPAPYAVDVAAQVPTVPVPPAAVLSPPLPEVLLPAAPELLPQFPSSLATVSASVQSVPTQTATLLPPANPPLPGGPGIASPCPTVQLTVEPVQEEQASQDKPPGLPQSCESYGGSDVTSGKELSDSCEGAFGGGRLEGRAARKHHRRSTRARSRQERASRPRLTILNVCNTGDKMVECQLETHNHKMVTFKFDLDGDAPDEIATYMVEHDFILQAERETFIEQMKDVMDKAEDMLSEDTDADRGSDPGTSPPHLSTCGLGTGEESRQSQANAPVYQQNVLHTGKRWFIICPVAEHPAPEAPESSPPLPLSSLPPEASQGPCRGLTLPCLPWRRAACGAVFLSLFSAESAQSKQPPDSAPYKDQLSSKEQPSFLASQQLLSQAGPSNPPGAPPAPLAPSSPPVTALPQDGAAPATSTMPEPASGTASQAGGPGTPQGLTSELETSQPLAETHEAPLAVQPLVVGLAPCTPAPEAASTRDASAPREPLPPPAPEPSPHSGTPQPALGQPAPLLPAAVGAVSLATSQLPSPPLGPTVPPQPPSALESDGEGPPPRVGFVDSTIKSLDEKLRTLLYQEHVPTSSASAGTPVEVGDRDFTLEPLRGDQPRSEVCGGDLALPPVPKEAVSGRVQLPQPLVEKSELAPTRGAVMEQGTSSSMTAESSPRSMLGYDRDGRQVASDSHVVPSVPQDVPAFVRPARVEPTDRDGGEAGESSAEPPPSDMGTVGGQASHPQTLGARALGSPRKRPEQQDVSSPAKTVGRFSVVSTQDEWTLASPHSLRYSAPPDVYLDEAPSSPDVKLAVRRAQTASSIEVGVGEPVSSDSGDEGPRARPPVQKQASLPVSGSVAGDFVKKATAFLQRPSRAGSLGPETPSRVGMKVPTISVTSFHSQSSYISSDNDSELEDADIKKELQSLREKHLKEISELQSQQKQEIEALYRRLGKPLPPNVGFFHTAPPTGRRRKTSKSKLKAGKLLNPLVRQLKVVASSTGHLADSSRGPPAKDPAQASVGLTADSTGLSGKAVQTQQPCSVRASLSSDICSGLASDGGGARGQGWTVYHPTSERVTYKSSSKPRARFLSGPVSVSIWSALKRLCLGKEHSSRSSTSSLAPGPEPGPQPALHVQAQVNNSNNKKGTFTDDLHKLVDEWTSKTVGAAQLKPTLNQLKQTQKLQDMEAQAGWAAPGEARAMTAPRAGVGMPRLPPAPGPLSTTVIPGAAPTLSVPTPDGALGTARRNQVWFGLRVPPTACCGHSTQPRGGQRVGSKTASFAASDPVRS

CC1=C(C#N)C(c2ccc3[nH]nc(C)c3c2)C(C#N)=C(C)N1 [BAY-474]
inactive: inhibition [1] -8% | inhibition [2] 0% | inhibition [3] -7% | inhibition [4] 2% | inhibition [5] -10% | inhibition [6] -5% | inhibition [7] -4% | inhibition [8] -9% | inhibition [9] -9% | inhibition [10] -10% | inhibition [11] 10% | inhibition [12] -4% | inhibition [13] 18% | inhibition [14] 12% | inhibition [15] 13% | inhibition [16] 17%

CC1=C(C#N)[C@@H](c2ccc3[nH]nc(C)c3c2)C(C#N)=C(c2ccc(Cl)cc2)N1 [BAY-827]
inactive: residual activity [17] 100% | residual activity [18] 100% | residual activity [19] 95.3% | residual activity [20] 100% | residual activity [21] 100% | residual activity [22] 88.1% | residual activity [23] 96.9% | residual activity [24] 100% | residual activity [25] 100% | residual activity [26] 100% | residual activity [27] 68.8% | residual activity [28] 83.2% | residual activity [29] 91.7% | residual activity [30] 93.9% | residual activity [31] 100% | residual activity [32] 100% | inhibition [33] 16.9% | residual activity [34] 86.8% | residual activity [35] 79.5% | residual activity [36] 92.2% | residual activity [37] 81.4% | residual activity [38] 100% | residual activity [39] 100% | residual activity [40] 100% | residual activity [41] 75.4% | residual activity [42] 100% | residual activity [43] 100% | residual activity [44] 90.7%
